Here are results for 1 compound from US20230019619A1, “TREATMENT OF A DISEASE OF THE GASTROINTESTINAL TRACT WITH A TLR MODULATOR” (BIORA THERAPEUTICS, INC., priority 2016, published 2023).

The nature of the data set: Tacrolimus tissue pharmacokinetics, oral versus intra-cecal ingestible device delivery. The format is in vivo, Yorkshire-Cross farm swine. The conditions noted are these: swine, intra-cecal as compared to oral, 12 hours post-dose. Here is the method: The primary objective of this study was to compare the tissue, plasma, rectal sample, and GI content pharmacokinetics of tacrolimus through oral versus intra-cecal ingestible device delivery in normal Yorkshire-Cross farm swine.
No further randomization procedure was employed.
Animals in Group 1 received an ingestible device containing 0.8 mL of vehicle solution (80% alcohol, 20% HCO-60). Animals in Group 2 received orally […] liquid formulation of tacrolimus at 4 mg/0.8 mL per animal (Prograf: 5 mg/mL). Animals in Group 3 received intra-cecally an ingestible device containing tacrolimus at 1 mg in 0.8 mL per ingestible device. […]
Approximately 200˜400 mg of rectal content were collected, if available, with a fecal swab (Copan Diagnostics Nylon Flocked Dry Swabs, 502CS01). The fecal swab was pre-weighed and weighed after collection in the collection tube (Sterile Tube and Cap No Media, PFPM913S), and the sample weight was recorded. […]
For tissue necropsy, small intestine fluid and cecal fluid were collected separately from all the animals into two separate square plastic bottles, and stored at −20° C. The length and diameter of the cecum and the colon was measured from one animal in each group and recorded for reference. […] All samples were weighed, and the tissue sample weights were recorded. […]

For the compound `C=CC[C@@H]1/C=C(\C)C[C@H](C)C[C@H](OC)[C@H]2O[C@@](O)(C(=O)C(=O)N3CCCC[C@H]3C(=O)O[C@H](/C(C)=C/[C@@H]3CC[C@@H](O)[C@H](OC)C3)[C@H](C)[C@@H](O)CC1=O)[C@H](C)C[C@@H]2OC` [tacrolimus], the “mean concentration in the cecum tissue and the proximate colon tissue (FIG. 76)” value is listed as “higher”.
